Assay results from US8080519B2, “Compositions and methods for enhanced pharmacological activity of compositions comprising peptide drug substances” (priority 1999, dated 2011).

Tests used:
male Wistar rats = assay: hot plate test in rats (time to first licking of the posterior foot); format: in vivo, rat; conditions: for Time to first signal activity after oral administration: morphine, codeine, ibuprofen 10 mg/kg; for Time to first signal activity after oral administration / Time to first signal activity after i.v. administration: CY5M 2.5 mg/kg; for Time to first signal activity after i.v. administration: morphine 1 mg/kg
Protocol: The time to first licking of the posterior foot by the rat is recorded after the rat has been place on a hot plate maintained at an elevated temperature (40° C.). This procedure provides accurate data on central analgesic activities induced by various candidate drugs. Under placebo conditions, the time to first licking of the posterior foot of the test animal varies between 30 and 50 seconds. […] In the experiments reported herein, a standard hot plate test was used to assess analgesia and the time to first licking of the test animal's posterior foot was used as the triggering event for measurement of elapsed time as indicative of the pharmacological effect of the administered drug species.
Seven groups of five male Wistar rats each were randomly assigned to the following treatments: placebo, 1 mg/kg morphine (i.v.), 10 mg/kg morphine (oral), 10 mg/kg codeine (oral), 10 mg/kg ibuprofen (oral), 2.5 mg/kg CY5M (i.v.), and 2.5 mg/kg CY5M (oral). The method was pre-validated with two oral and i.v. administrations of saline placebo and the results were similar to those obtained with placebo in the experiment reported below.

[1] = cited from earlier work
[2] = cited from earlier work; remark: listed apart in the source
splenocytes = assay: T cell proliferation in a skin immunization model (tritiated thymidine incorporation by splenocytes); format: in vivo, mice; conditions: for Proliferation Index: splenocytes grown 4 days, 2 weeks after skin immunization; for proliferation index, overall comparison: comparison among the tested formulations
Protocol: Model: • 9 week old mice were immunized by application on bare skin of 100·g of Nef(66-97) peptide sequence and modifications thereof in addition to 5·g of choleric toxin and 100·g of oligodeoxynucleotide containing a CpG moiety (Immunology, 2002 104:1-14). 2 weeks later splenocytes were collected and grown over 4 days in the presence of 4 different concentrations of Nef(66-97) peptide (SEQ ID NO:2). The proliferation was measured by incorporating tritiated thymidine.

With `COc1ccc2c3c1O[C@H]1[C@@H](O)C=C[C@H]4[C@@H](C2)N(C)CC[C@@]341` [Codeine] as the molecule, how does the “Time to first signal activity after oral administration” value (shortened to “Time … after oral administration”) (male Wistar rats; oral, 0 h) read?
Its value is 53.2 s.

And the “Time … after oral administration” value (male Wistar rats; oral, 1 h)?
The value was 51.4 s.

And the “Time … after oral administration” value (male Wistar rats; oral, 2 h)?
Its value is 64.6 s.

And the “Time … after oral administration” value (male Wistar rats; oral, 4 h)?
Its value is 57.6 s.

And the “Time … after oral administration” value (male Wistar rats; oral, 6 h)?
Its value is 56.2 s.

And the “Time … after oral administration” value (male Wistar rats; oral, 24 h)?
The value was 46.4 s.

Which solubility in water [1] does the source give for `NCCCC[C@H](N[C@@H](CCc1ccccc1)C(=O)O)C(=O)N1CCC[C@H]1C(=O)O` [Lisinopril] here?
Its solubility in water is “relatively good solubility in water”.

And the oral bioavailability [2]?
Its oral bioavailability is < 25%.

And the “Tmax (time to maximum serum levels in vivo)” value ([2]; oral)?
Its value is “more than seven”.

For Tyr-Gly-Gly-Phe-Met [Met-Enkephalin], which “duration of transient effect after i.v. administration” value (male Wistar rats; preliminary study, i.v.) is on record?
Its value is “about 15 minutes”.

What about the “analgesic effect after oral administration” value (male Wistar rats; preliminary study, oral, 5 mg/kg dose) of the same molecule?
The value was “unable to demonstrate any effect”.

For “D-Gal(OPiv)4-hydroxyvaleryl-aminooctanoyl-Nef(66-97) • G95ψ . . . (CH2—CH2) G96 [Pivgal]”, which “Proliferation Index” value (splenocytes; Conc. of Nef peptide 0.5) is on record?
The value was 05.

And the “Proliferation Index” value (splenocytes; Conc. of Nef peptide 5)?
The value was 08.

And the “Proliferation Index” value (splenocytes; Conc. of Nef peptide 50)?
The value was 10.

And the “Proliferation Index” value (splenocytes; Conc. of Nef peptide .05)?
Its value is 02.

Which “duration of analgesic effect” value (male Wistar rats; i.v. administration) does the source give for `CN1CC[C@]23c4c5ccc(O)c4O[C@H]2[C@@H](O)C=C[C@H]3[C@H]1C5` [Morphine] here?
The value was “six”.

And the “Time to first signal activity after i.v. administration” value (“Time … after i.v. administration” below) (male Wistar rats; i.v., 0 h)?
The value was 51.8 s.

And the “Time … after i.v. administration” value (male Wistar rats; i.v., 1 h)?
Its value is 118.8 s.

What about the “Time … after i.v. administration” value (male Wistar rats; i.v., 2 h) of the same molecule?
The value was 86.6 s.

And the “Time … after i.v. administration” value (male Wistar rats; i.v., 4 h)?
The value was 63.2 s.

And the “Time … after i.v. administration” value (male Wistar rats; i.v., 6 h)?
The value was 45.6 s.

And the “Time … after i.v. administration” value (male Wistar rats; i.v., 24 h)?
The value was 40.0 s.

What about the “duration of analgesic effect” value (male Wistar rats; oral administration) of the same molecule?
The value was “six”.

What about the “Time … after oral administration” value (male Wistar rats; oral, 0 h) of the same molecule?
The value was 51.8 s.

And the “Time … after oral administration” value (male Wistar rats; oral, 1 h)?
The value was 84.8 s.

And the “Time … after oral administration” value (male Wistar rats; oral, 2 h)?
Its value is 81.2 s.

What about the “Time … after oral administration” value (male Wistar rats; oral, 4 h) of the same molecule?
Its value is 58.8 s.

And the “Time … after oral administration” value (male Wistar rats; oral, 6 h)?
Its value is 48.8 s.

And the “Time … after oral administration” value (male Wistar rats; oral, 24 h)?
The value was 42.0 s.

For cinnamoyl-Met-Enkephalin [CY5M], which “duration of analgesic effect” value (male Wistar rats; i.v. administration) is on record?
The value was ≥ 24 h.

And the “Time … after i.v. administration” value (male Wistar rats; i.v., 0 h)?
The value was 51.0 s.

What about the “Time … after i.v. administration” value (male Wistar rats; i.v., 1 h) of the same molecule?
The value was 57.0 s.

And the “Time … after i.v. administration” value (male Wistar rats; i.v., 2 h)?
The value was 114.0 s.

And the “Time … after i.v. administration” value (male Wistar rats; i.v., 4 h)?
The value was 88.2 s.

And the “Time … after i.v. administration” value (male Wistar rats; i.v., 6 h)?
Its value is 106.0 s.

And the “Time … after i.v. administration” value (male Wistar rats; i.v., 24 h)?
Its value is 86.6 s.

And the “effectiveness relative to morphine by the same route (area under the dose response curve)” value (male Wistar rats; i.v., CY5M 2.5 mg/kg vs morphine 1 mg/kg)?
The value was “at least 8 times”.

And the “duration of analgesic effect” value (male Wistar rats; oral administration)?
Its value is ≥ 24 h.

What about the “Time … after oral administration” value (male Wistar rats; oral, 0 h) of the same molecule?
Its value is 53.6 s.

What about the “Time … after oral administration” value (male Wistar rats; oral, 1 h) of the same molecule?
The value was 46.2 s.

And the “Time … after oral administration” value (male Wistar rats; oral, 2 h)?
Its value is 78.8 s.

And the “Time … after oral administration” value (male Wistar rats; oral, 4 h)?
Its value is 78.2 s.

And the “Time … after oral administration” value (male Wistar rats; oral, 6 h)?
Its value is 82.6 s.

What about the “Time … after oral administration” value (male Wistar rats; oral, 24 h) of the same molecule?
Its value is 98.8 s.

What about the “effectiveness relative to morphine by the same route (area under the dose response curve)” value (male Wistar rats; oral, CY5M 2.5 mg/kg vs morphine 10 mg/kg) of the same molecule?
Its value is “at least 8 times”.

Which “Proliferation Index” value (splenocytes; Conc. of Nef peptide 0.5) does the source give for VGFPVTPQVPLRPMTYKAAVDLSHFLKEKGGL [Nef] here?
The value was 10.

What about the “Proliferation Index” value (splenocytes; Conc. of Nef peptide 5) of the same molecule?
Its value is 13.

And the “Proliferation Index” value (splenocytes; Conc. of Nef peptide 50)?
The value was 10.

What about the “Proliferation Index” value (splenocytes; Conc. of Nef peptide .05) of the same molecule?
Its value is 03.

What does the source list for Nef(66-97)-palmitoyl lysilamide [Lipo]?
Proliferation Index (splenocytes; Conc. of Nef peptide 0.5): 06; Proliferation Index (splenocytes; Conc. of Nef peptide 5): 08; Proliferation Index (splenocytes; Conc. of Nef peptide 50): 07; Proliferation Index (splenocytes; Conc. of Nef peptide .05): 03

What does the source list for `CC(C)Cc1ccc(C(C)C(=O)O)cc1` (stereo not drawn) [Ibuprofen]?
Time to first signal activity after oral administration (male Wistar rats; oral, 0 h): 53.2 s; Time to first signal activity after oral administration (male Wistar rats; oral, 1 h): 55.0 s; Time to first signal activity after oral administration (male Wistar rats; oral, 2 h): 70.4 s; Time to first signal activity after oral administration (male Wistar rats; oral, 4 h): 66.0 s; Time to first signal activity after oral administration (male Wistar rats; oral, 6 h): 54.0 s; Time to first signal activity after oral administration (male Wistar rats; oral, 24 h): 44.2 s

For “Cinnamoyl-aminovaleryl-Nef(66-97) G95ψ . . . (CH2—CH2) G96 [CC5]”, which “Proliferation Index” value (splenocytes; Conc. of Nef peptide 0.5) is on record?
Its value is 22.

What about the “Proliferation Index” value (splenocytes; Conc. of Nef peptide 5) of the same molecule?
The value was 21.

And the “Proliferation Index” value (splenocytes; Conc. of Nef peptide 50)?
The value was 20.

What about the “Proliferation Index” value (splenocytes; Conc. of Nef peptide .05) of the same molecule?
The value was 11.

What about the “proliferation index, overall comparison” value (splenocytes) of the same molecule?
The value was “best proliferation index”.

Which results are given for “Cinnamoyl-Nef(66-97) G95ψ . . . (CH2—CH2) G96 [C0]”?
Proliferation Index (splenocytes; Conc. of Nef peptide 0.5): 12; Proliferation Index (splenocytes; Conc. of Nef peptide 5): 14; Proliferation Index (splenocytes; Conc. of Nef peptide 50): 12; Proliferation Index (splenocytes; Conc. of Nef peptide .05): 08

For `C[C@H](N[C@@H](CCc1ccccc1)C(=O)O)C(=O)N1CCC[C@H]1C(=O)O` [Enalaprilat], which oral absorption [2] is on record?
The oral absorption was “very poorly absorbed orally”.

Which oral absorption [2] does the source give for `CCOC(=O)[C@H](CCc1ccccc1)N[C@@H](C)C(=O)N1CCC[C@H]1C(=O)O` [Enalapril] here?
The oral absorption was “better absorbed orally”.

What does the source list for “Cinnamoyl-aminooctanoyl-Nef(66-97) G95ψ . . . (CH2—CH2) G96 [CC8]”?
Proliferation Index (splenocytes; Conc. of Nef peptide 0.5): 22; Proliferation Index (splenocytes; Conc. of Nef peptide 5): 20; Proliferation Index (splenocytes; Conc. of Nef peptide 50): 16; Proliferation Index (splenocytes; Conc. of Nef peptide .05): 10; proliferation index, overall comparison (splenocytes): best proliferation index
